Read-outs that look alike come from different tables or passages of the source.
System: HSP47
Settings: for % of Expression at Dose (nM) 18 nM / % of HSP47 expression in Stellate Cell, Conc siRNA 18 nM: siRNA 18 nM; for % of Expression at Dose (nM) 75 nM / % of HSP47 expression in Stellate Cell, Conc siRNA 75 nM: siRNA 75 nM; for % of Expression at Dose (nM) 300 nM / % of HSP47 expression in Stellate Cell, Conc siRNA 300 nM: siRNA 300 nM; for HSP47 gene expression knockdown compared to control formulation without fusogenic compound: HEDC and S104 liposomes, all concentrations of siRNA; for % of HSP47 expression in Stellate Cell, Conc siRNA 18 nM / % of HSP47 expression in Stellate Cell, Conc siRNA 75 nM / % of HSP47 expression in Stellate Cell, Conc siRNA 300 nM: Table 5, stellate cells
Method: The in vitro activity for gene expression knockdown using an siRNA was measured using rat stellate cells in DMEM medium according to the following protocol: One day before the transfection, plate the cells in a 96-well plate at 3×10^3 cells per well for Stellate cells with 100 μl of medium containing 10% FBS and culture in a 37° C. incubator containing a humidified atmosphere of 5% CO2 in air. Before transfection, change medium to 90 μl of medium without antibiotics. Prepare the appropriate dilutions of the solution collected from the tubing in PBS buffer so that the addition of 10 μl into each well is sufficient to reach the desired concentration. 48 hours after transfection, wash the cells once with ice-cold PBS. Lyse the cells with 50 μl of Cell-to-Ct Lysis Buffer for 5-30 minutes at ambient temperature. Add 5 μl of Stop Solution and incubate for 2 minutes at ambient temperature. Measure mRNA level by qPCR with TAQMAN immediately. Alternatively, the samples can be frozen at −80° C. and assayed at later times. For qRT-PCR assay: Thaw all reagents on ice. Mix the pooled reagents in 0.2 ml PCR tubes. Dispense the set-up mixture into 384 well plate, 10 μl/well×3. Seal the plate with film, spin down mixture into the bottom of wells. Perform qRT-PCR assay.
In this example, an HSP47 siRNA was used to knockdown HSP47 gene. For TaqMan gene expression assays, HSP47 gene specific TaqMan probe was used.

SMILES | % of Expression at Dose (nM) 18 nM (Table 3, rat stellate cells) | % of Expression at Dose (nM) 75 nM (Table 3, rat stellate cells) | % of Expression at Dose (nM) 300 nM (Table 3, rat stellate cells) | % of Expression at Dose (nM) 18 nM (Table 4, rat stellate cells) | % of Expression at Dose (nM) 75 nM (Table 4, rat stellate cells) | % of Expression at Dose (nM) 300 nM (Table 4, rat stellate cells) | also measured
CCCCCCCCCCCCCC(=O)OCCN(CCOC(=O)CCCCCCCCCCCCC)C(=O)CCC(=O)NCCCC[C@H](NC(=O)CCC(=O)N(CCOC(=O)CCCCCCCCCCCCC)CCOC(=O)CCCCCCCCCCCCC)C(=O)NCCCOCCOCCOCCOCCOCCCNC(=O)[C@H](CCCCNC(=O)CCC(=O)N(CCOC(=O)CCCCCCCCCCCCC)CCOC(=O)CCCCCCCCCCCCC)NC(=O)CCC(=O)N(CCOC(=O)CCCCCCCCCCCCC)CCOC(=O)CCCCCCCCCCCCC [Compound T2] | 82% | 70% | 44% |  |  |  | 
CCCCCCCCCCCCCC(=O)OCCN(CCOC(=O)CCCCCCCCCCCCC)C(=O)CCC(=O)NCCCC[C@H](NC(=O)CCC(=O)N(CCOC(=O)CCCCCCCCCCCCC)CCOC(=O)CCCCCCCCCCCCC)C(=O)NCCCOCCOCCOCCCNC(=O)CCOCCOCCOCCOCCOCCC(=O)NCCCOCCOCCOCCCNC(=O)[C@H](CCCCNC(=O)CCC(=O)N(CCOC(=O)CCCCCCCCCCCCC)CCOC(=O)CCCCCCCCCCCCC)NC(=O)CCC(=O)N(CCOC(=O)CCCCCCCCCCCCC)CCOC(=O)CCCCCCCCCCCCC [Compound T1] | 76% | 68% | 44% |  |  |  | 
CCCCC/C=C\C/C=C\CCCCCCCC(=O)OCCN(CCOC(=O)CCCCCCC/C=C\C/C=C\CCCCC)C(=O)CCC(=O)NCCCC[C@H](NC(=O)CCC(=O)N(CCOC(=O)CCCCCCC/C=C\C/C=C\CCCCC)CCOC(=O)CCCCCCC/C=C\C/C=C\CCCCC)C(=O)NCCCOCCOCCOCCCNC(=O)CCOCCOCCOCCOCCOCCC(=O)NCCCOCCOCCOCCCNC(=O)[C@H](CCCCNC(=O)CCC(=O)N(CCOC(=O)CCCCCCC/C=C\C/C=C\CCCCC)CCOC(=O)CCCCCCC/C=C\C/C=C\CCCCC)NC(=O)CCC(=O)N(CCOC(=O)CCCCCCC/C=C\C/C=C\CCCCC)CCOC(=O)CCCCCCC/C=C\C/C=C\CCCCC [Compound R4] | 16% | 10% | 6% |  |  |  | activity for gene expression knockdown in stellate cells compared to control formulation (FIG. 24, Table 6 formulation HEDC:S104:DOPE:CH:DMPE-PEG with 2% (of total lipids) fusogenic compound): surprisingly increased; HSP47 gene expression knockdown compared to control formulation without fusogenic compound (FIG. 46, fusogenic compound 2% of the total lipids): greatly and surprisingly increased; HSP47 gene expression knockdown compared to control formulation without fusogenic compound (FIG. 46, fusogenic compound 10% of the total lipids): greatly and surprisingly increased; HSP47 gene expression knockdown compared to control formulation without fusogenic compound (FIG. 47, fusogenic compound 2% of the total lipids): greatly and surprisingly increased; % of Expression at Dose (nM) 50 nM (Table 3, siRNA 50 nM, rat stellate cells, 48 hours after transfection): 44%; % of Expression at Dose (nM) 200 nM (Table 3, siRNA 200 nM, rat stellate cells, 48 hours after transfection): 15%
CCCCC/C=C\C/C=C\CCCCCCCC(=O)OCCN(CCOC(=O)CCCCCCC/C=C\C/C=C\CCCCC)C(=O)CCC(=O)NC(CCCCNC(C)=O)C(=O)NCCCOCCOCCOCCOCCOCCCNC(=O)[C@H](CCCCNC(C)=O)NC(=O)CCC(=O)N(CCOC(=O)CCCCCCC/C=C\C/C=C\CCCCC)CCOC(=O)CCCCCCC/C=C\C/C=C\CCCCC (stereo partly drawn) [Compound T14] |  |  |  |  |  |  | % of HSP47 expression in Stellate Cell, Conc siRNA 18 nM: 103.3%; % of HSP47 expression in Stellate Cell, Conc siRNA 75 nM: 59.1%; % of HSP47 expression in Stellate Cell, Conc siRNA 300 nM: 5.2%
CCCCCCCC/C=C\CCCCCCCC(=O)OCCN(CCOC(=O)CCCCCCC/C=C\CCCCCCCC)C(=O)CCC(=O)NCCCC[C@H](NC(=O)CCC(=O)N(CCOC(=O)CCCCCCC/C=C\CCCCCCCC)CCOC(=O)CCCCCCC/C=C\CCCCCCCC)C(=O)NCCCOCCOCCOCCOCCOCCCNC(=O)[C@H](CCCCNC(=O)CCC(=O)N(CCOC(=O)CCCCCCC/C=C\CCCCCCCC)CCOC(=O)CCCCCCC/C=C\CCCCCCCC)NC(=O)CCC(=O)N(CCOC(=O)CCCCCCC/C=C\CCCCCCCC)CCOC(=O)CCCCCCC/C=C\CCCCCCCC [Compound S7] | 57% | 48% | 27% |  |  |  | 
CCCCC/C=C\C/C=C\CCCCCCCC(=O)OCCN(CCOC(=O)CCCCCCC/C=C\C/C=C\CCCCC)C(=O)CCC(=O)NC[C@H](NC(=O)CCC(=O)N(CCOC(=O)CCCCCCC/C=C\C/C=C\CCCCC)CCOC(=O)CCCCCCC/C=C\C/C=C\CCCCC)C(=O)NCCCOCCOCCOCCOCCOCCCNC(=O)[C@H](CNC(=O)CCC(=O)N(CCOC(=O)CCCCCCC/C=C\C/C=C\CCCCC)CCOC(=O)CCCCCCC/C=C\C/C=C\CCCCC)NC(=O)CCC(=O)N(CCOC(=O)CCCCCCC/C=C\C/C=C\CCCCC)CCOC(=O)CCCCCCC/C=C\C/C=C\CCCCC [Compound T7] |  |  |  | 51% | 20% | 8% | 
CCCCC/C=C\C/C=C\CCCCCCCC(=O)OCCN(CCOC(=O)CCCCCCC/C=C\C/C=C\CCCCC)C(=O)CCC(=O)NCCC[C@H](NC(=O)CCC(=O)N(CCOC(=O)CCCCCCC/C=C\C/C=C\CCCCC)CCOC(=O)CCCCCCC/C=C\C/C=C\CCCCC)C(=O)NCCCOCCOCCOCCOCCOCCCNC(=O)[C@H](CCCNC(=O)CCC(=O)N(CCOC(=O)CCCCCCC/C=C\C/C=C\CCCCC)CCOC(=O)CCCCCCC/C=C\C/C=C\CCCCC)NC(=O)CCC(=O)N(CCOC(=O)CCCCCCC/C=C\C/C=C\CCCCC)CCOC(=O)CCCCCCC/C=C\C/C=C\CCCCC [Compound T6] |  |  |  | 30% | 12% | 5% | 
CCC/C=C\C/C=C\CCCCCCCC(=O)OCCN(CCOC(=O)CCCCCCC/C=C\C/C=C\CCCCC)C(=O)CC[C@H](NC(=O)CCC(=O)NCCCOCCOCCOCCOCCOCCCNC(=O)CCC(=O)NC(CCC(=O)N(CCOC(=O)CCCCCCC/C=C\C/C=C\CCCCC)CCOC(=O)CCCCCCC/C=C\C/C=C\CCCCC)C(=O)N(CCOC(=O)CCCCCCC/C=C\C/C=C\CCC)CCOC(=O)CCCCCCC/C=C\C/C=C\CCCCC)C(=O)N(CCOC(=O)CCCCCCC/C=C\C/C=C\CCCCC)CCOC(=O)CCCCCCC/C=C\C/C=C\CCCCC (stereo partly drawn) [Compound T9] |  |  |  | 100% | 65% | 36% | 
CCCCC/C=C\C/C=C\CCCCCCCC(=O)OCCN(CCOC(=O)CCCCCCC/C=C\C/C=C\CCCCC)C(=O)CCC(=O)NCCCCC(NC(=O)CCC(=O)N(CCOC(=O)CCCCCCC/C=C\C/C=C\CCCCC)CCOC(=O)CCCCCCC/C=C\C/C=C\CCCCC)C(=O)NCCCOCCOCCOCCCNC(=O)C(CCCCNC(=O)CCC(=O)N(CCOC(=O)CCCCCCC/C=C\C/C=C\CCCCC)CCOC(=O)CCCCCCC/C=C\C/C=C\CCCCC)NC(=O)CCC(=O)N(CCOC(=O)CCCCCCC/C=C\C/C=C\CCCCC)CCOC(=O)CCCCCCC/C=C\C/C=C\CCCCC (stereo not drawn) [Compound T4] | 82% | 70% | 44% | 27% | 10% | 8% | 
CCCCC/C=C\C/C=C\CCCCCCCC(=O)OCCN(CCOC(=O)CCCCCCC/C=C\C/C=C\CCCCC)C(=O)CCC(=O)NCCCC[C@H](NC(C)=O)C(=O)NCCCOCCOCCOCCOCCOCCCNC(=O)[C@H](CCCCNC(=O)CCC(=O)N(CCOC(=O)CCCCCCC/C=C\C/C=C\CCCCC)CCOC(=O)CCCCCCC/C=C\C/C=C\CCCCC)NC(C)=O [Compound T13] |  |  |  |  |  |  | % of HSP47 expression in Stellate Cell, Conc siRNA 18 nM: 21.8%; % of HSP47 expression in Stellate Cell, Conc siRNA 75 nM: 6.4%; % of HSP47 expression in Stellate Cell, Conc siRNA 300 nM: 3.1%
CCCCCCCC/C=C\CCCCCCCC(=O)OCCN(CCOC(=O)CCCCCCC/C=C\CCCCCCCC)C(=O)CCC(=O)NCCCC[C@H](NC(=O)CCC(=O)N(CCOC(=O)CCCCCCC/C=C\CCCCCCCC)CCOC(=O)CCCCCCC/C=C\CCCCCCCC)C(=O)NCCCOCCOCCOCCCNC(=O)CCOCCOCCOCCOCCOCCC(=O)NCCCOCCOCCOCCCNC(=O)[C@H](CCCCNC(=O)CCC(=O)N(CCOC(=O)CCCCCCC/C=C\CCCCCCCC)CCOC(=O)CCCCCCC/C=C\CCCCCCCC)NC(=O)CCC(=O)N(CCOC(=O)CCCCCCC/C=C\CCCCCCCC)CCOC(=O)CCCCCCC/C=C\CCCCCCCC [Compound S8] | 74% | 64% | 42% |  |  |  | 
CCCCC/C=C\C/C=C\CCCCCCCC(=O)OCCN(CCOC(=O)CCCCCCC/C=C\C/C=C\CCCCC)C(=O)CCCC(=O)NCCCC[C@H](NC(=O)CCCC(=O)N(CCOC(=O)CCCCCCC/C=C\C/C=C\CCCCC)CCOC(=O)CCCCCCC/C=C\C/C=C\CCCCC)C(=O)NCCCOCCOCCOCCOCCOCCCNC(=O)[C@H](CCCCNC(=O)CCCC(=O)N(CCOC(=O)CCCCCCC/C=C\C/C=C\CCCCC)CCOC(=O)CCCCCCC/C=C\C/C=C\CCCCC)NC(=O)CCCC(=O)N(CCOC(=O)CCCCCCC/C=C\C/C=C\CCCCC)CCOC(=O)CCCCCCC/C=C\C/C=C\CCCCC [Compound T5] |  |  |  | 29% | 13% | 11% | 
CCCCC/C=C\C/C=C\CCCCCCCC(=O)OCC(OC(=O)CCCCCCC/C=C\C/C=C\CCCCC)C1CCN(C(=O)CCC(=O)NCCCCC(NC(=O)CCC(=O)N2CCC(C(COC(=O)CCCCCCC/C=C\C/C=C\CCCCC)OC(=O)CCCCCCC/C=C\C/C=C\CCCCC)CC2)C(=O)NCCCOCCOCCOCCOCCOCCCNC(=O)C(CCCCNC(=O)CCC(=O)N2CCC(C(COC(=O)CCCCCCC/C=C\C/C=C\CCCCC)OC(=O)CCCCCCC/C=C\C/C=C\CCCCC)CC2)NC(=O)CCC(=O)N2CCC(C(COC(=O)CCCCCCC/C=C\C/C=C\CCCCC)OC(=O)CCCCCCC/C=C\C/C=C\CCCCC)CC2)CC1 (stereo not drawn) [Compound T11] |  |  |  |  |  |  | % of HSP47 expression in Stellate Cell, Conc siRNA 18 nM: 11.1%; % of HSP47 expression in Stellate Cell, Conc siRNA 75 nM: 4.5%; % of HSP47 expression in Stellate Cell, Conc siRNA 300 nM: 1.8%

— patent US11413243B2, “Fusogenic compounds for delivery of biologically active molecules” (Nitto Denko Corporation, priority 2017, dated 2022)
